These results are taken from patent US7928063B2, “Analogs of human growth hormone-releasing hormone, their preparation and use” (Instytut Farmaceutyczny, priority 2001, dated 2011).

Read-outs that look alike come from different tables or passages of the source. Square brackets hold non-standard residues; d marks the D form. Peptide text beside a SMILES is read from it. * marks the point of attachment. Desaminotyrosyl = O=C(CCc1ccc(O)cc1)*; hArg = N=C(N)NCCCC[C@H](N)C(=O)O; Nle = CCCC[C@H](N)C(=O)O Some results are limits rather than exact numbers.

In series [1] the test system is GH release. Briefly: Effect of subcutaneous administration on GH release (plasma GH by RIA) in male rats. It is filed as in vivo, rat. The following applies: for Relative potency compared with hGH-RH-(1-29)—NH2: at 15 minutes after the injection; for Plasma GH at various times after injection, 15 min. / Plasma GH at various times after injection, 30 min. / Plasma GH at various times after injection, 0 min.: male rats, mean ± SEM; for Plasma GH at various times after injection, 0 min.: sample 1 minute before injection; for Net GH concentration Δ(15 − 30): GH at 15 min. minus GH at 30 min.; for Net GH concentration Δ(15 − 0): GH at 15 min. minus GH before injection.

In series [2] the test system is trypsin. The experiment in a line: Trypsin digestion test (enzymatic resistance, HPLC). It is filed as in vitro ADME. The following applies: for Resistance to trypsin digestion (in words): after 30 minutes; for remaining at 0.5 h, 0.4 mg/ml / remaining at 1 h, 0.4 mg/ml: trypsin, pH 8.5, 37° C., read-out: % Unchanged compound; for remaining at 0.5 h, 0.4 mg/ml: digestion time 30 min.; for remaining at 1 h, 0.4 mg/ml: digestion time 60 min. Here is the method:
The compounds prepared were also tested for enzymatic resistance in the trypsin digestion test. […] Subsequently, a trypsin solution was added (100 μl; 0.02 mg/ml; Serva, 36 U/mg). […] An aliquot (500 μl) was withdrawn and diluted with 0.5 M acetic acid (1 ml), then lyophilized. The material obtained was analyzed by HPLC, using a Knauer system with an Eurospher 100 C18 (4.6×250 mm, 5 micron) column. The following solvent systems were used: A, 0.1% TFA in water; […]

Where [3] appears, read: trypsin solution (Serva, 36 U/mg).

Consider `CCCC[C@H](NC(=O)[C@@H](NC(=O)[C@H](CC(=O)O)NC(=O)[C@H](CCC(N)=O)NC(=O)[C@H](CC(C)C)NC(=O)[C@H](CC(C)C)NC(=O)[C@H](CCCCNC(=N)N)NC(=O)[C@H](CCCCNC(=N)N)NC(=O)[C@H](C)NC(=O)[C@H](CO)NC(=O)[C@H](CC(C)C)NC(=O)[C@H](CCC(N)=O)NC(=O)[C@H](C)NC(=O)[C@H](CC(C)C)NC(=O)[C@@H](NC(=O)[C@H](CCCCNC(=N)N)NC(=O)[C@H](CCCCNC(=N)N)NC(=O)[C@H](Cc1ccc(O)cc1)NC(=O)[C@H](CO)NC(=O)[C@H](CC(N)=O)NC(=O)[C@@H](NC(=O)[C@H](Cc1ccccc1)NC(=O)[C@@H](NC(=O)[C@H](C)NC(=O)[C@H](CC(=O)O)NC(=O)[C@H](C)NC(=O)CCc1ccc(O)cc1)[C@@H](C)CC)[C@@H](C)O)C(C)C)[C@@H](C)CC)C(=O)N[C@@H](CC(=O)O)C(=O)N[C@@H](CCCCNC(=N)N)C(N)=O` [Compound 1, Dat-Ala-Asp-Ala-Ile-Phe-Thr-Asn-Ser-Tyr^10-hArg-hArg-Val-Leu-Ala-Gln-Leu-Ser-Ala-hArg^20-hArg-Leu-Leu-Gln-Asp-Ile-Nle-Asp-hArg^29-NH2] (Desaminotyrosyl-ADAIFTNSY[hArg][hArg]VLAQLSA[hArg][hArg]LLQDI[Nle]D[hArg]-NH2), for which, in series [1] (dose 1.0 μg/kg vs 50 μg/kg of hGH-RH-(1-29)—NH2), the “Relative potency compared with hGH-RH-(1-29)—NH2” value stood at 70 times higher. Further, the “Relative potency compared with hGH-RH-(1-29)—NH2” value in series [1] (dose 3.0 μg/kg vs 150 μg/kg of hGH-RH-(1-29)—NH2) was 38 times higher. In series [1] (sc., dose 1 μg/kg), this compound came in with a Plasma GH at various times after injection, 15 min. of 99.1 ± 16 ng/mL; a Plasma GH at various times after injection, 30 min. of 42.5 ± 9.2 ng/mL; a Plasma GH at various times after injection, 0 min. of 23.1 ± 2 ng/mL. In series [1] (sc., dose 3 μg/kg), this compound showed a Plasma GH at various times after injection, 15 min. of 130 ± 16 ng/mL; a Plasma GH at various times after injection, 30 min. of 58.4 ± 8.9 ng/mL; a Plasma GH at various times after injection, 0 min. of 28.3 ± 4.1 ng/mL. In addition, the “Effect on GH release in rats, compared with saline control (in words)” value in series [1] (rats, sc.) is “strongest stimulating effect”. Also, in series [1] (rats, sc., dose 1 μg/kg), the “Net GH concentration Δ(15 − 30)” value came out at 56.5 ± 14.7 ng/mL and the “Net GH concentration Δ(15 − 0)” value is 75.9 ± 16.0 ng/mL. In series [1] (rats, sc., dose 3 μg/kg), the “Net GH concentration Δ(15 − 30)” value amounted to 72.0 ± 12.6 ng/mL and the “Net GH concentration Δ(15 − 0)” value is 102 ± 12.6 ng/mL. Moreover, the “Resistance to trypsin digestion (in words)” value in series [2] is given as “unchanged”. In series [2] (isolated enzyme trypsin), the remaining at 0.5 h, 0.4 mg/ml is greater than 99% and the remaining at 1 h, 0.4 mg/ml is greater than 99%.

As for `CC[C@H](C)[C@H](NC(=O)[C@H](C)NC(=O)[C@H](CC(=O)O)NC(=O)[C@H](C)NC(=O)[C@@H](N)Cc1ccc(O)cc1)C(=O)N[C@@H](Cc1ccccc1)C(=O)N[C@H](C(=O)N[C@@H](CC(N)=O)C(=O)N[C@@H](CO)C(=O)N[C@@H](Cc1ccc(O)cc1)C(=O)N[C@@H](CCCNC(=N)N)C(=O)N[C@@H](CCCCN)C(=O)N[C@H](C(=O)N[C@@H](CC(C)C)C(=O)NCC(=O)N[C@@H](CCC(N)=O)C(=O)N[C@@H](CC(C)C)C(=O)N[C@@H](CO)C(=O)N[C@@H](C)C(=O)N[C@@H](CCCNC(=N)N)C(=O)N[C@@H](CCCCN)C(=O)N[C@@H](CC(C)C)C(=O)N[C@@H](CC(C)C)C(=O)N[C@@H](CCC(N)=O)C(=O)N[C@@H](CC(=O)O)C(=O)N[C@H](C(=O)N[C@@H](CCSC)C(=O)N[C@@H](CO)C(=O)N[C@@H](CCCNC(=N)N)C(N)=O)[C@@H](C)CC)C(C)C)[C@@H](C)O` [hGH-RH(1-29)-NH2, reference compound], the “Resistance to trypsin digestion (in words)” value in series [2] is “complete digestion”. Further, in series [2] (setting [3]), the remaining at 0.5 h, 0.4 mg/ml worked out at 0% and the remaining at 1 h, 0.4 mg/ml was 0%.
